From patent US10669266B2, “Oxadiazole inhibitors of HIPK2 for treating kidney fibrosis” (ICAHN SCHOOL OF MEDICINE AT MOUNT SINAI, priority 2017, dated 2020)

test system: Smad3-responsive luciferase reporter (SBE4-Luc)
Experimental: Human primary tubular cells (PromoCell GmbH, Heidelberg, Germany) were cultured in Renal Epithelial Cell Growth Medium-2 (Promocell GmbH) with supplements according to manufacturer's protocol human primary renal tubular epithelial cells with <5 passages were used for all studies. For HIV infection of hRTECs, pNL4-3:ΔG/P-EGFP, a gag/poi-deleted HIV-1 construct that contains EGFP in the gag open reading frame, and pHR-IRES-EGFP, a control EGFP construct, were used to generate the VSV-G pseudotyped virus. Cells were infected with HIV pseudotyped virus or control virus for 2 days before the treatment with test compound.
Renilla luciferase reporter plasmid (pRL) was purchased from Promega.
Forty-eight hours post-transfection cells were treated with assigned concentrations of test compound together with or without 10 ng/ml TGF-β1 for 16 hours. Luciferase activities were measured using the Dual-Luciferase Reporter Assay kit (Promega, #E1910). Data are expressed as the ratio of firefly luciferase activity over Renilla luciferase activity. […] 48 hours after transfection, luciferase activities were measured.

| SMILES | Luciferase Activity (Relative to DMSO control) −TGFβ |
| --- | --- |
| CCOC(=O)c1ccc(-c2noc(-c3cnc4cc(Br)ccc4c3)n2)cc1 [Example 5, ethyl 4-(5-(7-bromoquinolin-3-yl)-1,2,4-oxadiazol-3-yl)benzoate] | 0.512 |
| COc1ccc2cc(-c3nc(-c4ccc(B5OC(C)(C)C(C)(C)O5)cc4)no3)cnc2c1 [Example 3, 5-(7-methoxyquinolin-3-yl)-3-(4-(4,4,5,5-tetramethyl-1,3,2-dioxaborolan-2-yl)phenyl)-1,2,4-oxadiazole] | 0.730 |
| CC1(C)OB(c2ccc3cc(-c4nc(-c5ccc(C(=O)O)cc5)no4)cnc3c2)OC1(C)C [Example 6, 4-(5-(7-(4,4,5,5-tetramethyl-1,3,2-dioxaborolan-2-yl)quinolin-3-yl)-1,2,4-oxadiazol-3-yl)benzoic acid] | 0.722 |
| CCOC(=O)c1ccc(-c2noc(-c3cnc4cc(Cl)ccc4c3)n2)cc1 [Example 2] | 0.660 |
| COc1ccc2cc(-c3nc(-c4cccc(Br)n4)no3)cnc2c1 [Example 7] | 0.784 |
| CCOC(=O)c1ccc(-c2noc(-c3cnc4cc(B5OC(C)(C)C(C)(C)O5)ccc4c3)n2)cc1 [Example 8, ethyl 4-(5-(7-(4,4,5,5-tetramethyl-1,3,2-dioxaborolan-2-yl)quinolin-3-yl)-1,2,4-oxadiazol-3-yl)benzoate] | 0.818 |
| COc1ccc2cc(-c3nc(-c4ccc([B-](F)(F)F)cc4)no3)cnc2c1 [Example 4] | 0.366 |
